For series [1], the system named is Plasmodium falciparum. Briefly: Resistant index, ratio of IC50 for chloroquine-resistant Plasmodium falciparum Dd2 to IC50 for chloroquine-sensitive Plasmodium falciparum D10. The class given is functional.
The subject of series [2] is Plasmodium falciparum. Briefly: Antimalarial activity against chloroquine-sensitive Plasmodium falciparum D10. Format: functional, organism-based.
Series [3] in a line: Selectivity index, ratio of IC50 for CHO cells to IC50 for chloroquine-sensitive Plasmodium falciparum D10. Format: toxicity, cell-based. The note with it: hamster, read-out: Ratio IC50.
For series [4], the system named is Plasmodium falciparum. Nature of the series: Antimalarial activity against chloroquine-resistant Plasmodium falciparum Dd2. Format: functional, organism-based.
The next series concerns CHO. Nature of the series: Cytotoxicity against CHO cells by MTT assay. The class given is cell-based. The note with it: Cricetulus griseus.

As a reminder, the IC50 is the midpoint of a concentration-inhibition curve. A high value points to weaker potency. For the compound `c1ccc(CNC[C@@H]2C[C@@]3(c4ccccc4)CCN2C3)cc1` (relative stereo), in the series with Plasmodium falciparum [1], the “Ratio IC50” value is 9.6. Besides, the IC50 with Plasmodium falciparum [2] stood at 2.63 µM; in the series with Plasmodium falciparum [4] it was 24.2 µM; in the series on CHO, 231 µM. In addition, the selectivity ratio in series [3] was 91.2.
Compound `CC[C@H]1CN2CCc3cc(OC)c(OC)cc3[C@@H]2C[C@@H]1C[C@H]1NCCc2cc(OC)c(OC)cc21` [EMETINE] displayed a half-maximal inhibitory concentration (IC50) with CHO of 0.33 µM.
`Clc1ccc(CNC[C@H]2C[C@@]3(c4ccccc4)CCN2C3)cc1` (relative stereo): the “Ratio IC50” value in the series with Plasmodium falciparum [1] amounted to 2. Further, the IC50 in the series with Plasmodium falciparum [2] was 6.01 µM; in the series with Plasmodium falciparum [4] it was 11.8 µM; in the series with CHO it was 90.4 µM. The selectivity ratio in series [3] amounted to 15.1.
For `Cc1ccc(CNC[C@H]2C[C@@]3(c4ccccc4)CCN2C3)cc1` (relative stereo), in that order: 1.5, 10.3 µM, 15.9 µM, 163 µM and 15.7.
In the same order, the values of `Cc1ccc(CNC[C@@H]2C[C@@]3(c4ccccc4)CCN2C3)cc1` (relative stereo) are 12.5, 0.81 µM, 10 µM, 160 µM and 200.
Regarding `c1ccc(CNC[C@H]2C[C@@]3(c4ccccc4)CCN2C3)cc1` (relative stereo), the “Ratio IC50” value in the series on Plasmodium falciparum [1] stood at 4.4. Also, the IC50 was 18.4 µM in the series with Plasmodium falciparum [2], 78.5 µM in the series on Plasmodium falciparum [4] and > 300 µM in the series with CHO.
As to `Clc1ccc(CNC[C@@H]2C[C@@]3(c4ccccc4)CCN2C3)cc1` (relative stereo), in the series on Plasmodium falciparum [1], the “Ratio IC50” value is recorded as 1.7. For the same compound, the 50% inhibitory concentration (IC50) worked out at 1.39 µM in the series on Plasmodium falciparum [2], 2.4 µM in the series on Plasmodium falciparum [4] and 71.2 µM with CHO. Besides, the selectivity ratio in series [3] turned out to be 51.1.

Values taken from ChEMBL document CHEMBL2331223, “Synthesis of 2-aminomethyl-4-phenyl-1-azabicyclo[2.2.1]heptanes via LiAlH₄-induced reductive cyclization of 2-(4-chloro-2-cyano-2-phenylbutyl)aziridines and evaluation of their antimalarial activity” (Bioorg Med Chem Lett, 2013).
